Reference: patent publication US12617777B2, “GPR84 antagonists and uses thereof” (Liminal BioSciences Limited, priority 2021, dated 2026)

Legend:
human GPR84 receptor = biological target: T1, human GPR84 receptor (Homo sapiens, UniProt Q9NQS5); assay: Gαi biosensor BRET assay in HEK293 cells (antagonism of ZQ-16); assay type: cell-based; conditions: for inhibition at 10 µM: HEK293, single concentration 10 μM (designated F); for IC50: HEK293 cells, antagonism of 200 nmol/L ZQ-16; for inhibition at 2 µM: HEK293, single concentration 2 μM (designated A); for inhibition at 25 µM: HEK293, single concentration 25 μM (designated I)
T1 construct: host or cells: HEK293, transient transfection
Outline: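 Antagonist mode: test compound 5 min at 37° C, followed by ZQ-16 agonist (200 nmol/L, 5 min, room temperature), in HEK293 cells transfected with GPR84 plus Rluc8-tagged Gαi2, GFP10-Gγ2 and Gβ1. Readout as GFP10/Rluc8 emission ratio after 5 μmol/L coelenterazine 400A, net of Rluc8-only and vehicle signal.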

neutrophils = assay: Neutrophil migration assay (embelin as chemotactic agent, ATPlite readout); assay type: cell-based; conditions: for IC50: Neutrophil, human neutrophils, embelin as chemotactic agent, read-out: Human Neutrophil migration inhibition IC50; for Human Neutrophil migration inhibition - fold potency to Control Compound: normalized to GPR84 antagonist Control Compound (average IC50 131 nM)
Procedure: Neutrophil migration assay. After isolation, neutrophils were resuspended in chemotaxis buffer (DMEM supplemented with 10 mM HEPES) at a concentration of 8.9×10^6 cells/ml. In a 96-well plate, 20 μl of compound solution in chemotaxis buffer is added to 180 μl of cell suspension. After incubation at 37° C. for 30 minutes, 75 μl of cell suspension is transferred in the upper chamber of a 5 μm pore size Corning HTS transwell. 235 μl of chemotaxis buffer containing the chemotactic agent (embelin) is added to the lower chamber of the transwell. After a 60-minute incubation time at 37° C. in 5%0 C02, the upper chamber of the transwell is removed and the plate is centrifuged at 1500 rpm for 6 minutes. Supermatant is removed and cells resuspended in 100 ul of PBS. ATP content was assessed using ATPlite Luminescence Assay System® according to manufacturer instructions (Perkin Elmer, Buckinghamshire, UK). Briefly, 50 μl of ATPlite buffer and 50 μl of lysis solution is added to the lower chamber of the Transwells. After incubation at room temperature, in the dark with constant agitation for 5 minutes, 150 μl of cell lysate is transferred in a 96 wells white plate and incubated for 10 minutes in the dark. Luminescence is read on a TECAN plate reader, Infinite M1000 (Tecan, Morrisville, NC).
The compound numbers correspond to the compound numbers in Table 1. […] Normalization of the results takes the donor's variation into account.

T1 sequence (Q9NQS5 whole entry): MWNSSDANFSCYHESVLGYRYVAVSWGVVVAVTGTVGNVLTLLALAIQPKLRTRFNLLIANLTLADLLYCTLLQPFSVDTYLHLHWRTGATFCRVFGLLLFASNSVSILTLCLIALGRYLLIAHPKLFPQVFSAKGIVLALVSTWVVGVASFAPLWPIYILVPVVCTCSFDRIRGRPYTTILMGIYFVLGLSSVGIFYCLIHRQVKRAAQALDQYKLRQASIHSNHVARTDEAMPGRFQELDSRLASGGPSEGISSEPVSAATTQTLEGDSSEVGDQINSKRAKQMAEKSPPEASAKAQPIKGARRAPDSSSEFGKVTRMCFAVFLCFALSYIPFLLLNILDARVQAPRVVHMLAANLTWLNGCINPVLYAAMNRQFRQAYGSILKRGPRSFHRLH

Compound | inhibition at 10 µM (human GPR84 receptor) | IC50 (human GPR84 receptor) | IC50 (neutrophils) | inhibition at 2 µM (human GPR84 receptor) | inhibition at 25 µM (human GPR84 receptor) | inhibition at 1 µM (human GPR84 receptor; HEK293, single concentration 1 μM (designated A°)) | Human Neutrophil migration inhibition - fold potency to Control Compound (neutrophils)
Cc1cc(C#CCNc2ccccc2)ccc1-c1cn(C[C@@H]2CCCCO2)nn1 (stereo in doubt) [Compound I-144] | ≤ 25% | 1000 to 3000 nM | 1000 to 3000 nM |  |  |  | C (IC50≤0.5-fold relative to Control Compound)
Cc1cc(C#CCN(C)CC2CC2)ccc1-c1cn(CC2CCCCO2)nn1 (stereo not shown) [Compound I-121] | > 75% | 300 to 1000 nM | 300 to 1000 nM |  |  |  | C (IC50≤0.5-fold relative to Control Compound)
COC(c1cn(CC2CCCCO2)nn1)c1cc(C#CC2CC2)ccc1C (stereo not shown) [Compound I-417] |  | 300 to 1000 nM | ≤ 300 nM | > 75% |  |  | A (IC50 of >1.0-fold relative to Control Compound)
Cc1cc(C#CCN2CCN(c3ccccc3)CC2)ccc1-c1cn(CC2CCCCO2)nn1 (stereo not shown) [Compound I-120] |  | ≤ 300 nM | ≤ 300 nM |  |  |  | B (IC50 of >0.5-≤1.0-fold relative to Control Compound)
Cc1cc(C#CC2(O)CCCCC2)ccc1-c1cn(CC2CCCCO2)nn1 (stereo not shown) [Compound I-94] | > 75% | 1000 to 3000 nM | 1000 to 3000 nM |  |  |  | C (IC50≤0.5-fold relative to Control Compound)
CCc1cc(C#CCNC(=O)OC(C)(C)C)ccc1-c1cn(CC2CCCCO2)nn1 (stereo not shown) [Compound I-572] | > 75% | 300 to 1000 nM | ≤ 300 nM |  |  |  | A (IC50 of >1.0-fold relative to Control Compound)
CN(C)c1cc(N2CC(C)(CO)C2)ccc1-c1cn(C[C@H]2CC(C)(C)CO2)nn1 (stereo in doubt) [Compound I-588] |  | ≤ 300 nM | ≤ 300 nM |  |  | > 75% | A (IC50 of >1.0-fold relative to Control Compound)
Cc1cc(N2CC(C)(NCc3ccccn3)C2)ccc1-c1cn(CC2CCCCO2)nn1 (stereo not shown) [Compound I-441] | 50 to 75% | 1000 to 3000 nM | ≤ 300 nM |  |  |  | A (IC50 of >1.0-fold relative to Control Compound)
Clc1cc(C#CC2CC2)ccc1-c1cn(CC2CCCCO2)nn1 (stereo not shown) [Compound I-315] |  | > 3000 nM | 300 to 1000 nM |  | > 75% |  | C (IC50≤0.5-fold relative to Control Compound)
CC(C)Oc1cc(C#CC2CC(F)(F)C2)cnc1-c1cn(CC2OCC(C)(C)CO2)nn1 [Compound I-650] |  | 300 to 1000 nM | ≤ 300 nM | > 75% |  |  | A (IC50 of >1.0-fold relative to Control Compound)
Cc1ccc(C#CC2CC2)cc1C(OC1CC1)c1cn(CC2OCC(C)(C)CO2)nn1 (stereo not shown) [Compound I-644] |  | 300 to 1000 nM | ≤ 300 nM | > 75% |  |  | A (IC50 of >1.0-fold relative to Control Compound)
CO[C@H](c1cn(C[C@@H]2CCCCO2)nn1)c1cc(C#CC2CC2)ccc1C [Compound I-512] |  | 300 to 1000 nM | ≤ 300 nM | > 75% |  |  | C (IC50≤0.5-fold relative to Control Compound)
Cc1cc(N2CC(C)(OCc3ccccn3)C2)ccc1-c1cn(CC2CCCCO2)nn1 (stereo not shown) [Compound I-452] | > 75% | 300 to 1000 nM | ≤ 300 nM |  |  |  | A (IC50 of >1.0-fold relative to Control Compound)
Cc1cc(C#CC2CC2)cnc1-c1cn(CC2CCCCO2)nn1 (stereo not shown) [Compound I-107] | > 75% | 1000 to 3000 nM | ≤ 300 nM |  |  |  | A (IC50 of >1.0-fold relative to Control Compound)
Cc1cc(C#CCNC(=O)OC(C)(C)C)ccc1-c1cn(CC2CCCCO2)nn1 (stereo not shown) [Compound I-177] | 50 to 75% | 1000 to 3000 nM | ≤ 300 nM |  |  |  | A (IC50 of >1.0-fold relative to Control Compound)
Cc1ccc(C#CC2CC2)cc1-n1nc(CC2CCCCO2)oc1=O (stereo not shown) [Compound I-14] | > 75% | 1000 to 3000 nM | ≤ 300 nM |  |  |  | A (IC50 of >1.0-fold relative to Control Compound)
Cc1cc(C#CC2CC2)cnc1-c1cn(CC2CCCCO2)cn1 (stereo not shown) [Compound I-424] | > 75% | 1000 to 3000 nM | ≤ 300 nM |  |  |  | A (IC50 of >1.0-fold relative to Control Compound)
Cc1cc(C#CCN2CCC(F)(F)CC2)ccc1-c1cn(CC2CCCCO2)nn1 (stereo not shown) [Compound I-118] | > 75% | > 3000 nM | ≤ 300 nM |  |  |  | C (IC50≤0.5-fold relative to Control Compound)

Continued, in another order:

inhibition at 10 µM (human GPR84 receptor) | IC50 (human GPR84 receptor) | IC50 (neutrophils) | inhibition at 2 µM (human GPR84 receptor) | inhibition at 25 µM (human GPR84 receptor) | inhibition at 1 µM (human GPR84 receptor; HEK293, single concentration 1 μM (designated A°)) | Compound | Human Neutrophil migration inhibition - fold potency to Control Compound (neutrophils)
50 to 75% | 1000 to 3000 nM | 1000 to 3000 nM |  |  |  | Cc1cc(C#CCN(C)CC2(C(F)(F)F)CC2)ccc1-c1cn(CC2CCCCO2)nn1 (stereo not shown) [Compound I-138] | C (IC50≤0.5-fold relative to Control Compound)
 | 300 to 1000 nM | 300 to 1000 nM |  |  |  | Cc1cc(C#CCNCc2ccccc2)ccc1-c1cn(CC2CCCCO2)nn1 (stereo not shown) [Compound I-86] | C (IC50≤0.5-fold relative to Control Compound)
> 75% | ≤ 300 nM | 300 to 1000 nM |  |  |  | Cc1cc(N2CC(C)(CNc3ccccc3)C2)ccc1-c1cn(CC2CCCCO2)nn1 (stereo not shown) [Compound I-411] | B (IC50 of >0.5-≤1.0-fold relative to Control Compound)
 | > 3000 nM | > 3000 nM |  | > 75% |  | Cc1ccc(C#CC2CC2)cc1-c1nnn(CC2CCCCO2)n1 (stereo not shown) [Compound I-7] | C (IC50≤0.5-fold relative to Control Compound)
> 75% | ≤ 300 nM | ≤ 300 nM |  |  |  | Cc1cc(N2CCN(Cc3ccccn3)CC2)ccc1-c1cn(CC2OCC(C)(C)CO2)nn1 [Compound I-531] | A (IC50 of >1.0-fold relative to Control Compound)
 |  | 1000 to 3000 nM | 25 to 50% |  |  | Cc1cc(N2CC3(CCCN3Cc3ccccc3)C2)ccc1-c1cn(CC2CCCCO2)nn1 (stereo not shown) [Compound I-149] | C (IC50≤0.5-fold relative to Control Compound)
> 75% | 300 to 1000 nM | ≤ 300 nM |  |  |  | Cc1cc(C#CCN2CC(C)(C)C2)cnc1-c1cn(CC2OCC(C)(C)CO2)nn1 [Compound I-596] | A (IC50 of >1.0-fold relative to Control Compound)
> 75% | 300 to 1000 nM | ≤ 300 nM |  |  |  | CN(C)c1cc(C#CCNc2ccccc2)ccc1-c1cn(CC2CC(C)(C)CO2)nn1 (stereo not shown) [Compound I-460] | A (IC50 of >1.0-fold relative to Control Compound)
25 to 50% | 300 to 1000 nM | ≤ 300 nM |  |  |  | Cc1cc(N2CC(C)(N(C)Cc3ccccc3)C2)ccc1-c1cn(CC2CCCCO2)nn1 (stereo not shown) [Compound I-553] | B (IC50 of >0.5-≤1.0-fold relative to Control Compound)
 | 1000 to 3000 nM | 300 to 1000 nM |  |  |  | Cc1cc(C#CC(C)(C)C)ccc1-c1cn(CC2CCCCO2)nn1 (stereo not shown) [Compound I-67] | B (IC50 of >0.5-≤1.0-fold relative to Control Compound)
 | ≤ 300 nM | ≤ 300 nM | > 75% |  |  | CC(C)Oc1cc(C#CC2CC2)cnc1-c1cn(CC2OCC(C)(C)CO2)nn1 [Compound I-651] | A (IC50 of >1.0-fold relative to Control Compound)
> 75% | 300 to 1000 nM | ≤ 300 nM |  |  |  | Cc1cc(C#CCNc2ccccc2)ccc1-c1cn(C[C@H]2CCCCO2)nn1 [Compound I-166] | A (IC50 of >1.0-fold relative to Control Compound)
> 75% | ≤ 300 nM | ≤ 300 nM |  |  |  | CN(C)c1cc(N2CC(C)(C)C2)ccc1-c1cn(CC2OCC(C)(C)CO2)nn1 [Compound I-585] | A (IC50 of >1.0-fold relative to Control Compound)
> 75% | ≤ 300 nM | ≤ 300 nM |  |  |  | CCc1cc(C#CCNc2cccnc2)cnc1-c1cn(C[C@H]2CCCCO2)nn1 [Compound I-535] | B (IC50 of >0.5-≤1.0-fold relative to Control Compound)
